These results are taken from patent US10722501B2 (BAYER AKTIENGESELLSCHAFT, priority 2016, dated 2020).

Molecules are shown by their SMILES. pIC50: −log10 of the molar value.

For this experiment, the target named is T1, recombinant full-length human prolyl endopeptidase (PREP) (Homo sapiens, UniProt P48147).
T1 construct: To recombinant full-length human prolyl endopeptidase (PREP, R&D-Systems, 4308-SE); purchased R&D-Systems 4308-SE
T1 sequence (P48147 1-710): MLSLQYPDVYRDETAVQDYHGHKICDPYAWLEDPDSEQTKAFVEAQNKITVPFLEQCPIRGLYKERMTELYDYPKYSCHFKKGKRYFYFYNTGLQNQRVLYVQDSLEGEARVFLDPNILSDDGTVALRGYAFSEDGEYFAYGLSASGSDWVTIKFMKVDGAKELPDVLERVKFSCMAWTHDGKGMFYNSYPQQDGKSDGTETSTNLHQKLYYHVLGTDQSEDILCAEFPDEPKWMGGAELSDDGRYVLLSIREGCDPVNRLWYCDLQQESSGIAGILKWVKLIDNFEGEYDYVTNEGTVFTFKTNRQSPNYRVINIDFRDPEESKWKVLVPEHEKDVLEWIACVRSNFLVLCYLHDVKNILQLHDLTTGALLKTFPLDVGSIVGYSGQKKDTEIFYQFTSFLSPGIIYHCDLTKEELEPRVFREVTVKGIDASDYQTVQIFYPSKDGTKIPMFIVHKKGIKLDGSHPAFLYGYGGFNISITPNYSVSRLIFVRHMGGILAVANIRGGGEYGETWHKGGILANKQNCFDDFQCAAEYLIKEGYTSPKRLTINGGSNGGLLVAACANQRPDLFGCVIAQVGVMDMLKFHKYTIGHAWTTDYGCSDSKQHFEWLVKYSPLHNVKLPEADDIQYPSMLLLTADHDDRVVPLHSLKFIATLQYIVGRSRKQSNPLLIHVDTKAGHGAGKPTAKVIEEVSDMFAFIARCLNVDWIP
As to the kind of experiment: Biochemical human prolyl endopeptidase (PREP) assay with fluorescently labelled substrate. The settings on record: substrate Z-Gly-Pro-AMC 50 μM, 32° C., 60 min; some as mean values from multiple independent determinations. In short, it runs like this:
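Initial rates of fluorescence increase from 50 μM Z-Gly-Pro-AMC cleavage (ex 360/em 465 nm, 60 min, 32° C) give percent PREP activity versus no-compound control, and IC50 is interpolated. Enzyme used at 0.4 nM (final, example) in Tris pH 7.5 with EDTA, GSH, BSA and Brij-35; compounds span 1 nM to 30 μM.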
What is called pIC50 is −log10 of the IC50, conventionally taken in molar units. On to `Cc1ccc(Cn2nc3n(c2=O)[C@H](C(=O)N2CCC[C@H]2C#N)CCC3)cc1` [Example 109, (2S)-1-{[(5S)-2-(4-Methylbenzyl)-3-oxo-2,3,5,6,7,8-hexahydro[1,2,4]triazolo[4,3-a]pyridin-5-yl]carbonyl}pyrrolidine-2-carbonitrile], for which the pIC50 is 9.68.
As for `Cc1ccc(Cn2nc3n(c2=O)[C@H](C(=O)N2CC[C@H](F)C2)CCC3)cc1` [Example 110, (5S)-5-{[(3S)-3-Fluoropyrrolidin-1-yl]carbonyl}-2-(4-methylbenzyl)-5,6,7,8-tetrahydro[1,2,4]triazolo[4,3-a]pyridin-3(2H)-one], the pIC50 is 9.49.
In the case of `Cc1ccc(Cn2nc3n(c2=O)[C@H](C(=O)N2CC[C@@H](F)C2)CCC3)cc1` [Example 111, (5S)-5-{[(3R)-3-Fluoropyrrolidin-1-yl]carbonyl}-2-(4-methylbenzyl)-5,6,7,8-tetrahydro[1,2,4]triazolo[4,3-a]pyridin-3(2H)-one], the pIC50 is 9.39.
For `Cc1ccc(Cn2nc3n(c2=O)[C@H](C(=O)N2CC(F)C2)CCC3)cc1` [Example 113, (5S)-5-[(3-Fluoroazetidin-1-yl)carbonyl]-2-(4-methylbenzyl)-5,6,7,8-tetrahydro[1,2,4]triazolo[4,3-a]pyridin-3(2H)-one] the value was 9.38; for `Cc1ccc(Cn2nc3n(c2=O)[C@H](C(=O)N2CC[C@@H](O)C2)CCC3)cc1` [Example 122, (5S)-5-{[(3R)-3-Hydroxypyrrolidin-1-yl]carbonyl}-2-(4-methylbenzyl)-5,6,7,8-tetrahydro[1,2,4]triazolo[4,3-a]pyridin-3(2H)-one], 7.99.
For `Cc1ccc(Cn2nc3n(c2=O)[C@H](C(=O)N2CCC[C@@H]2C)CCC3)cc1` [Example 127, 2-(4-Methylbenzyl)-(5S)-{[(2S)-2-methylpyrrolidin-1-yl]carbonyl}-5,6,7,8-tetrahydro[1,2,4]triazolo[4,3-a]pyridin-3(2H)-one] the value was 7.36; for `CO[C@H]1CCN(C(=O)[C@@H]2CCCc3nn(Cc4ccc(C)cc4)c(=O)n32)C1` [Example 130, (5S)-{[(3S)-3-Methoxypyrrolidin-1-yl]carbonyl}-2-(4-methylbenzyl)-5,6,7,8-tetrahydro[1,2,4]triazolo[4,3-a]pyridin-3(2H)-one], 7.30; for `Cc1ccc(Cn2nc3n(c2=O)[C@H](C(=O)N2CCC[C@H]2C)CCC3)cc1` [Example 132, (5S)-2-(4-Methylbenzyl)-{[(2R)-2-methylpyrrolidin-1-yl]carbonyl}-5,6,7,8-tetrahydro[1,2,4]triazolo[4,3-a]pyridin-3(2H)-one], 6.85.
As to `Cc1ccc(Cn2nc3n(c2=O)[C@H](C(=O)N2C[C@H](F)[C@@H](F)C2)CCC3)cc1` [Example 140, (5S)-5-{[(3S,4S)-3,4-Difluoropyrrolidin-1-yl]carbonyl}-2-(4-methylbenzyl)-5,6,7,8-tetrahydro[1,2,4]triazolo[4,3-a]pyridin-3(2H)-one], the pIC50 was 7.80.
With `Cc1ccc(Cn2nc3n(c2=O)[C@H](C(=O)N2CC[C@H](C(F)F)C2)CCC3)cc1` [Example 143, (5S)-5-{[(3S)-3-(Difluoromethyl)pyrrolidin-1-yl]carbonyl}-2-(4-methylbenzyl)-5,6,7,8-tetrahydro[1,2,4]triazolo[4,3-a]pyridin-3(2H)-one] the figure was 7.88; with `Cc1ccc(Cn2nc3n(c2=O)[C@H](C(=O)N2CC(F)(F)C(F)(F)C2)CCC3)cc1` [Example 145, (5S)-2-(4-Methylbenzyl)-5-[(3,3,4,4-tetrafluoropyrrolidin-1-yl)carbonyl]-5,6,7,8-tetrahydro[1,2,4]triazolo[4,3-a]pyridin-3(2H)-one], 7.90; with `Cc1ccc(Cn2nc3n(c2=O)[C@H](C(=O)N2CC(CF)C2)CCC3)cc1` [Example 146, (5S)-5-{[3-(Fluoromethyl)azetidin-1-yl]carbonyl}-2-(4-methylbenzyl)-5,6,7,8-tetrahydro[1,2,4]triazolo[4,3-a]pyridin-3(2H)-one], 9.03.
With `Cc1ccc(Cn2nc3n(c2=O)[C@H](C(=O)N2CC[C@@H]2C)CCC3)cc1` [Example 148, (5S)-5-{[(2S)-2-Methylazetidin-1-yl]carbonyl}-2-(4-methylbenzyl)-5,6,7,8-tetrahydro[1,2,4]triazolo[4,3-a]pyridin-3(2H)-one] the figure was 7.67; with `Cc1ccc(Cn2nc3n(c2=O)[C@H](C(=O)N2CC(C(F)F)C2)CCC3)cc1` [Example 149, (5S)-5-{[3-(Difluoromethyl)azetidin-1-yl]carbonyl}-2-(4-methylbenzyl)-5,6,7,8-tetrahydro[1,2,4]triazolo[4,3-a]pyridin-3(2H)-one], 8.60; with `Cc1ccc(Cn2nc3n(c2=O)[C@H](C(=O)N2C[C@@H](F)[C@@H](F)C2)CCC3)cc1` [Example 150, (5S)-5-{[cis-3,4-Difluoropyrrolidin-1-yl]carbonyl}-2-(4-methylbenzyl)-5,6,7,8-tetrahydro[1,2,4]triazolo[4,3-a]pyridin-3(2H)-one], 9.24.
With `Cc1ccc(Cn2nc3n(c2=O)[C@H](C(=O)N2CCCC2)CC3)cc1` [Example 157, (5S)-2-(4-Methylbenzyl)-5-(pyrrolidin-1-ylcarbonyl)-2,5,6,7-tetrahydro-3H-pyrrolo[2,1-c][1,2,4]triazol-3-one] the figure was 8.89.
As for `Cc1ccc(Cn2nc3n(c2=O)[C@H](C(=O)N2C[C@@H](O)[C@H](F)C2)CCC3)cc1` [Example 183, (5S)-5-{[(3R,4R)-3-Fluoro-4-hydroxypyrrolidin-1-yl]carbonyl}-2-(4-methylbenzyl)-5,6,7,8-tetrahydro[1,2,4]triazolo[4,3-a]pyridin-3(2H)-one], the pIC50 is 6.96.
Consider `O=C([C@@H]1CCCc2nn(CC3CC3)c(=O)n21)N1C[C@@H](F)[C@@H](F)C1` [Example 184, (5S)-2-(Cyclopropylmethyl)-5-{[(3R,4S)-3,4-difluoropyrrolidin-1-yl]carbonyl}-5,6,7,8-tetrahydro[1,2,4]triazolo[4,3-a]pyridin-3(2H)-one], for which the pIC50 was 8.35.
For `O=C([C@@H]1CCCc2nn(Cc3ccnc(C(F)(F)F)c3F)c(=O)n21)N1CC2CC1C2` [Example 187, (5S)-5-(2-Azabicyclo[2.1.1]hex-2-ylcarbonyl)-2-{[3-fluoro-2-(trifluoromethyl)pyridin-4-yl]methyl}-5,6,7,8-tetrahydro[1,2,4]triazolo[4,3-a]pyridin-3(2H)-one] the value was 6.99; for `Cc1ccc(Cn2nc3n(c2=O)[C@H](C(=O)N2CCC[C@H]2C(=O)CO)CCC3)cc1` [Example 190, (5S)-5-{[(2S)-2-Glycoloylpyrrolidin-1-yl]carbonyl}-2-(4-methylbenzyl)-5,6,7,8-tetrahydro[1,2,4]triazolo[4,3-a]pyridin-3(2H)-one], 9.89.
With `Cc1ccc(Cn2nc3n(c2=O)[C@H](C(=O)N2CC4(C2)CC4(F)F)CCC3)cc1` [Example 191, (5S)-5-[(1,1-Difluoro-5-azaspiro[2.3]hex-5-yl)carbonyl]-2-(4-methylbenzyl)-5,6,7,8-tetrahydro[1,2,4]triazolo[4,3-a]pyridin-3(2H)-one] the figure was 8.55.
Take `Cc1ccc(Cn2nc3n(c2=O)[C@H](C(=O)N2CC(C)C2)CCC3)cc1` [Example 192, (5S)-5-[(3-Methylazetidin-1-yl)carbonyl]-2-(4-methylbenzyl)-5,6,7,8-tetrahydro[1,2,4]triazolo[4,3-a]pyridin-3(2H)-one]: the pIC50 is 9.49.
For `Cc1ccc(Cn2nc3n(c2=O)[C@H](C(=O)N2CC(C)(F)C2)CCC3)cc1` [Example 195, (5S)-5-[(3-Fluoro-3-methylazetidin-1-yl)carbonyl]-2-(4-methylbenzyl)-5,6,7,8-tetrahydro[1,2,4]triazolo[4,3-a]pyridin-3(2H)-one] the value was 9.16; for `Cc1ccc(Cn2nc3n(c2=O)[C@H](C(=O)N2CCC[C@H]2C=O)CCC3)cc1` [Example 196, (2S)-1-{[(5S)-2-(4-Methylbenzyl)-3-oxo-2,3,5,6,7,8-hexahydro[1,2,4]triazolo[4,3-a]pyridin-5-yl]carbonyl}pyrrolidine-2-carbaldehyde], 9.40; for `O=C([C@@H]1CCCc2nn(Cc3ccc(C(F)(F)F)nc3)c(=O)n21)N1CC2CC1C2` [Example 199, (5S)-5-(2-Azabicyclo[2.1.1]hex-2-ylcarbonyl)-2-{[6-(trifluoromethyl)pyridin-3-yl]methyl}-5,6,7,8-tetrahydro[1,2,4]triazolo[4,3-a]pyridin-3(2H)-one], 7.23.
For `O=C([C@@H]1CCCc2nn(/C=C/c3ccc(F)cc3)c(=O)n21)N1CCCC1` [Example 204, (5S)-2-[(E)-2-(4-Fluorophenyl)vinyl]-5-(pyrrolidin-1-ylcarbonyl)-5,6,7,8-tetrahydro[1,2,4]triazolo[4,3-a]pyridin-3(2H)-one] the value was 6.49.
